Read-outs that look alike come from different tables or passages of the source. Each block holds one molecule with its values, some of them ahead of it.
Columns and labels:
[1] = tested on: UGT1A1; set-up: method as in suppl. 32; settings: ref suppl. 32; cited from earlier work
[2] = tested on: UGT1A3; set-up: method as in suppl. 32; settings: ref suppl. 32; cited from earlier work
[3] = Inhibitor plasma exposure and plasma binding (literature); assay type: in vivo, human; settings: Figure 5
Description: (§1) Supplement 5. Exploratory analysis to evaluate potential AO-mediated DDI risks […]
(§2) Semi-mechanistic model for AO-mediated DDI risk predictions
(§3) Supp. Table 4. Summary of inhibitor parameters used in the semi -mechanistic static model to evaluate the risk of AO -mediated DDIs
(§4) Semi-mechanistic model for AO mediated DDI risk predictions: […]
(§5) using the semi-mechanistic static model with listed parameters in Suppl. Table 4. The most conservative approach is used for all compounds with maximum Cmax,u and minimum Ki,u data available. […]
(§6) [I] is the unbound concentration of inhibitors in the liver and was designated as the unbound maximum systemic concentration of inhibitors as a surrogate. 27 Due to the lack of AO kdeg values in the literature, the arithmetic means of all reported P450 kdeg (0.00026 min-1) was used.28, 29 […]
(§7) Table S4. Summary of inhibitor parameters used in the semi-mechanistic static model to evaluate the risk of […]
(§8) bSimcyp v.21 Compound Repository […]
(§9) dCorrected for the 0.05 mg/mL cytosolic protein from the measured fuinc at 1.5 mg/mL cytosolic protein34, 36

[4] = molecular target: T1, aldehyde oxidase (AO) (Homo sapiens, UniProt Q06278); settings: cited from earlier work; for Mode of inhibition: ref suppl. 30, 31, 32, 35, 59
T1 sequence (Q06278 1-1338): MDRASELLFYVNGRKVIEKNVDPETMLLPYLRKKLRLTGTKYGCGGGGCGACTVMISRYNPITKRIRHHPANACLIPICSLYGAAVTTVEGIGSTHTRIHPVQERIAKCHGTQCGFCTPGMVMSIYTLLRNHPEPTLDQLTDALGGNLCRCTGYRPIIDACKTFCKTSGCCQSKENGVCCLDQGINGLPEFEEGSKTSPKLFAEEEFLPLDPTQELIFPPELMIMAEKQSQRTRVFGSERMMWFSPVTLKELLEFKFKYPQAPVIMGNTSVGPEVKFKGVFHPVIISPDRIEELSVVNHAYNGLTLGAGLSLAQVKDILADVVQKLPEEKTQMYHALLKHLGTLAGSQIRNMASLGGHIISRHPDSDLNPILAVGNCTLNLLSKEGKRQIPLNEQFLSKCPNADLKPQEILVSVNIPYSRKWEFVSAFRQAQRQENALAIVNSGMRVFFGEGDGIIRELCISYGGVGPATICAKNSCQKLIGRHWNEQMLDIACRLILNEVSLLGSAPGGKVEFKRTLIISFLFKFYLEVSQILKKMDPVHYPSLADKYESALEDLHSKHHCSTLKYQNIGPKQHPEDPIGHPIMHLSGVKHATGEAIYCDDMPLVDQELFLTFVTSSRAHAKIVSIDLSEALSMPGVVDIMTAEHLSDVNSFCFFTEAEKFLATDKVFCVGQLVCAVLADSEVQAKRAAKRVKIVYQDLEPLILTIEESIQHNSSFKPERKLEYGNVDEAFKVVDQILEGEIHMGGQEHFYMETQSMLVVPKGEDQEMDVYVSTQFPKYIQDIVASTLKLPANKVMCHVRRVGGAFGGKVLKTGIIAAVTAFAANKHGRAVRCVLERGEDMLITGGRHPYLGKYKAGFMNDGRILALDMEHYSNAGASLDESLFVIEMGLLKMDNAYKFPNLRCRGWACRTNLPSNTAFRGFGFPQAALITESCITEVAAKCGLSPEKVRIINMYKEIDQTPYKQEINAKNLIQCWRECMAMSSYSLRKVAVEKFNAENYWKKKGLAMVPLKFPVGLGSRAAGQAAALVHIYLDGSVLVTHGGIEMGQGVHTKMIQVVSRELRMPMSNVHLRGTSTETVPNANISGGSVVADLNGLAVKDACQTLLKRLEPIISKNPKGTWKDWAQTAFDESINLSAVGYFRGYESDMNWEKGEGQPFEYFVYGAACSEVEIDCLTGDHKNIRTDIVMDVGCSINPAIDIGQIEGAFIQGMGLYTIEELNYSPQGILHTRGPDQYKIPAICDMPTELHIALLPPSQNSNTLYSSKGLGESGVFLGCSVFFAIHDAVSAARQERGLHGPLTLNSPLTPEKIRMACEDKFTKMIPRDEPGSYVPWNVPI

[5] = molecular target: T1, aldehyde oxidase (AO); test: In vitro AO inhibition (literature); settings: Figure 5
Description: as §1, §2, §3, §4, §5, §6, §7, §8, §9

[6] = molecular target: T1, aldehyde oxidase (AO); settings: cited from earlier work
[7] = tested on: CYP3A4; settings: cited from earlier work
[8] = Blood-to-plasma ratio (B/P); assay type: in vitro ADME, human
Description: Determination of blood to plasma ratio (B/P):
Whole human blood was collected on the day of the experiment from healthy volunteers. The collection protocol was approved by an independent ethical committee and all donors signed the consent forms. All samples were registered in the Janssen Biobank.
Prewarmed blood aliquots were mixed with the compounds (final concentrations shown in Suppl. Table 5) with a final organic DMSO solvent concentration of ≤0.1% (v/v). After gentle mixing to avoid haemolysis, blood aliquots were immediately collected for protein precipitation (1:1:8 ratios of blood sample:DMSO:ACN) and centrifugation (10 minutes, 3800 g) and the supernatant was used as a 0-minute reference blood sample. At the same time, blood aliquots were taken and centrifuged (10 minutes, 1200 g) to obtain the plasma portion. Plasma aliquots were then immediately collected for protein precipitation (1:1:8 ratios of plasma sample:DMSO:ACN) and centrifugation (10 minutes, 3800 g) and the supernatant was used as a 0-minute reference plasma sample. The remainder of the blood fraction was incubated (30 min at 37 °C). Following incubation, 30 -minute blood and plasma samples were taken and prepared as described for the reference 0-minute samples.
Mean compound concentration values (n=3 replicates) were calculated for both the blood and plasma samples. A blood-to-plasma concentration ratio was then determined using Eq. S4. […]

[9] = both, human, 6 h, 2 µM, pH 7.4
Method: Microsomal binding (fumic):
(§10) The fraction unbound in human liver microsomes (fumic) of compounds was determined by equilibrium
(§11) dialysis using the high-throughput dialysis method 2 using membranes from HTDialysis, LLC (Gales
(§12) Ferry, CT) having 12 to 14 kDa molecular mass cutoff. Deactivated HLM (by leaving the HLM
(§13) incubation media on the bench overnight at ambient temperature) at 0.25 mg/mL with 2 µM of
(§14) compounds (a final concentration of DMSO as 1%) was added to the donor compartment in 50 mM
(§15) phosphate buffer containing 1 M MgCl2. (150 µL, n=4 per compound). 150 µL of Dulbecco’s PBS
(§16) buffer (pH 7.4) was added to the receiver chamber for each replicate. After reaching equilibrium for 6
(§17) h on a plate shaker (200 rpm) at 37°C in a humidified CO2 incubator (5% CO2), aliquots from both the
(§18) receiver (45 µL) and donor (15 µL) sides of the membrane were matrix matched and analyzed by LC-
(§19) MS/MS. Matrix stability (n=3) and % of recovery (n=4) were assessed.
(§20) Data analysis for binding in microsomal and cytosolic incubations:
(§21) Fraction unbound in microsomal (fumic) and cytosolic (fucyt) incubations were calculated via Eq. S10-11
(§22) based on the ratio of the peak areas of analyte and internal standard.
(§23) 𝑃𝑒𝑎𝑘 𝐴𝑟𝑒𝑎 𝑅𝑎𝑡𝑖𝑜 = (𝑃𝑒𝑎𝑘 𝐴𝑟𝑒𝑎 𝑜𝑓 𝐴𝑛𝑎𝑙𝑦𝑡𝑒)/(𝑃𝑒𝑎𝑘 𝐴𝑟𝑒𝑎 𝑜𝑓 𝐼𝑛𝑡𝑒𝑟𝑛𝑎𝑙 𝑆 tan 𝑑 𝑎𝑟𝑑) (Eq. S10)
(§24) 𝑓𝑢𝑚𝑖𝑐 𝑜𝑟 𝑓𝑢𝑐𝑦𝑡 = (𝑃𝑒𝑎𝑘 𝐴𝑟𝑒𝑎 𝑅𝑎𝑡𝑖𝑜 𝑖𝑛 𝑟𝑒𝑐𝑒𝑖𝑣𝑒𝑟 𝑐𝑜𝑚𝑝𝑎𝑟𝑡𝑚𝑒𝑛𝑡)/
(§25) concentration (0.5 mg/mL) using Hallifax and Houston algorithm (Hallifax and Houston, 2006). Matrix
(§26) stability and recovery were assessed using Eq. S12 and Eq. S13.
(§27) %𝑠𝑡𝑎𝑏𝑖𝑙𝑖𝑡𝑦 = (𝐴𝑣𝑒𝑟𝑎𝑔𝑒 𝑝𝑒𝑎𝑘 𝑎𝑟𝑒𝑎 𝑖𝑛 𝑚𝑎𝑡𝑟𝑖𝑥 𝑎𝑡 𝑡ℎ𝑒 𝑒𝑛𝑑 𝑜𝑓 𝑖𝑛𝑐𝑢𝑏𝑎𝑡𝑖𝑜𝑛)/
(§28) (𝐴𝑣𝑒𝑟𝑎𝑔𝑒 𝑝𝑒𝑎𝑘 𝑎𝑟𝑒𝑎 𝑎𝑡 𝑇 = 0) × 100 (Eq. S12)
%𝑟𝑒𝑐𝑜𝑣𝑒𝑟𝑦 = (𝐴 + 𝐵)/𝐶 × 100 (Eq. S13)
(§29) where A is the average peak area ratio of all matrix samples, B is the average peak area ratio
(§30) of all buffer samples multiplied with the buffer dilution factor and C is the average peak area ratio of

[10] = Cytosolic binding (fucyt), dog liver cytosol; settings: 1 mg/mL; n=3, mean (CV%)
Method: In vitro data were generated to inform the PBPK models of the selected drugs (Supplement 1 in Appendix S1; Table S1). Subcellular fractions of human and dog liver were sourced from XenoTech (Kansas City, KS, USA). In vitro CLint,u was measured with substrate depletion and binding assays for all compounds (1 μM) in human liver microsomes (HLM; 0.25–0.5 mg/mL) and HLC (1 mg/mL). HLC pool was prepared from livers perfused with Custodiol HTK (histidine tryptophan ketoglutarate) solution, marketed as having preserved “high AO/XO activity.”[15] Dog liver cytosols (DLC; 1 mg/mL) were used to investigate cytosolic binding in the absence of AO. Routine in vitro assays were used to quantify unbound fraction in plasma (fup), blood‐to‐plasma ratio (B/P), and apparent permeability (Papp) through transwell transport assays utilizing canine Mdr1 knockout and empty vector‐transfected MDCKI cells.
𝐶𝐿 = 𝑘 × 𝑣𝑜𝑙𝑢𝑚𝑒 𝑜𝑓 𝑖𝑛𝑐𝑢𝑏𝑎𝑡𝑖𝑜𝑛 (Eq S9)
Cytosolic binding (fucyt):
The fraction unbound in human liver cytosols (fucyt) of compounds was determined by equilibrium
dialysis using the RED device (Thermo Fisher, Waltham MA, USA) with a molecular weight cut-off of
8 kDa. Dog or human liver cytosols at 1 mg/mL with 1 µM of compounds (300 µL, n=3 per compound)
were added to the donor compartment in 100 mM potassium phosphate buffer with final DMSO
liver cytosols to inactivate AO, whereas dog was used as a natural AO knock-out model. 500 µL of 100
mM potassium phosphate buffer (pH 7.35) was added to the receiver chamber for each replicate.
RED device was then sealed with an adhesive foil and incubated on an orbital shaker at 450 rpm (VWR
Symphony) at 37°C with 5 % CO2. After reaching equilibrium for 4 hours, aliquots from both the
receiver (30µL) and donor (30µL) sides of the membrane were matrix matched, and then quenched with
180 µL of cold ACN with 100 nM propranolol (internal standard). The samples were placed in a
Beckman Coulter Allegra x 12R Centrifuge (Brea, CA) for 15 minutes at 3700 rpm. After centrifugation,
the supernatant of each sample was diluted 1:2 and analyzed by LC -MS/ MS. Matrix stability and
recovery were assessed in triplicates and followed identical sample preparation.
Microsomal binding (fumic):
as §10, §11, §12, §13, §14, §15, §16, §17, §18, §19, §20, §21, §22, §23, §24, §25, §26, §27, §28
%𝑟𝑒𝑐𝑜𝑣𝑒𝑟𝑦 = (𝐴 + 𝐵)/𝐶 × 100 (Eq. S13)
as §29

[11] = Plasma protein binding (fup), rapid equilibrium dialysis; assay type: in vitro ADME, human; settings: male, human, plasma, 20 h, 1 µM
Method: (differing in 2 donors) were used for activity and microsomal binding assays, respectively.
The human biological samples were sourced ethically, and their research use was in accord with the terms of the informed consents under an IRB/EC approved protocol.
Determination of plasma protein binding (fup):
Human plasma (male, K2EDTA) was obtained from BioIVT (Baltimore, MD, USA). A pool of n=20 donors was prepared in-house (batch: 16062022). The plasma protein binding of compounds in human was determined by equilibrium dialysis using the rapid equilibrium dialysis (RED) device (Thermo […]
Frozen blank human plasma […]
solution to a final concentration of 1 µM (0.5 % DMSO). 300 µ L of the fortified plasma samples were subjected to dialysis against 500 µL PBS buffer at pH 7.4, for 6 h at 37 °C in triplicate. After dialysis, 200 µl aliquots of the buffer and the plasma compartments were transferred into micronic tubes. To minimize the potential for non -specific binding to the micronic tubes the buffer sam ples were collected on to 50µl of 10 % bovine serum albumin (BSA). For the assessment of test compound stability in plasma, 300 µl aliquots of the spiked plasma solutions were transferred into micronic tubes and incubated in an air heated incubator at 37°C without shaking for 4 and 20 hours. The remaining spiked protein solutions were frozen and used to measure the initial start concentration ( C0) to calculate the recovery. Sample analysis was achieved by LC -MS/MS and absolute quantification of the drug lev els in the buffer and plasma compartments was achieved via a matrix matched calibration curve (in the presence of an internal standard tolbutamide). All buffer and plasma sample sets were matrix matched […]
for analysis. The samples were centrifuged (15 minutes, 3400 g) and supernatants were transferred to a fresh plate for analysis. The unbound concentration (Cu), and the total concentration (CED) were determined by measurement of the concentration of the test compound in the buffer and plasma compartments of the dialysis cells, respectively. The fraction unbound was calculated using Eq. S1.
fuplasma = Cu/CED (Eq. S1)
The percentage recovery was calculated as the ratio of the sum of the amount in the buffer (Au) and plasma (AED) compartments to the amount at time zero (A0) (Eq. S2). The percentage stability was calculated as the ratio of the concentration of the test compound at the end of the incubation (C t) time […]
% recovery = (( Au + AED ) / A0 ) × 100 (Eq. S2)

[12] = cited from earlier work
[13] = cited from earlier work; remark: listed apart in the source
[14] = Cytosolic binding (fucyt), human liver cytosol with AO inhibitor; settings: 1 mg/mL; n=3, mean (CV%)
[15] = in vitro; settings: both, human, microsomes
Method: Subcellular fractions of human and dog liver were sourced from XenoTech (Kansas City, KS, USA). In vitro CLint,u was measured with substrate depletion and binding assays for all compounds (1 μM) in human liver microsomes (HLM; 0.25–0.5 mg/mL) and HLC (1 mg/mL).
Microsomal clearance incubations (CLint):
Human liver microsomes were stored at −80°C and rapidly thawed just before use at 37°C.
All compounds were mixed with HLM and 50 mM
phosphate buffer. 450 µL of the mixture was added to 1.2mL cluster tubes in a 96-well block in
duplicate and warmed in a water bath (Thermo Scientific Precision™,Waltham MA, USA ) at 37°C for
5 min. Reactions were initiated by the addition of 50 µL from 10 mM of NADPH stock in 50 mM
phosphate buffer (final NADPH concentration, 1 mM). The final incubation contained 1 µM test
compound in 500 µL total volume with 0.02% DMSO. At each time point (5, 10, 20, 30, and 60 min),
60 µL of incubation mixture was added to 120 uL of quench solutions (MeOH:ACN, 1:1, v:v)
containing internal standard (0.5 µM carbutamide). The mixture was centrifuged at 3000 rpm for 20
min (Eppendorf 5810R, Hamburg, Germany). Supernatant was injected to HPLC-MS/MS with for data
Data analysis for substrate depletion assays:
Data from the microsomal and cytosolic incubations were analyzed using GraFit 7 (Erithacus Software,
Horley, UK) to determine the elimination rate constant (k), which was used in CLint calculation (Eq.
S9). A nonlinear single exponential fit was used for all compounds.
𝐶𝐿 = 𝑘 × 𝑣𝑜𝑙𝑢𝑚𝑒 𝑜𝑓 𝑖𝑛𝑐𝑢𝑏𝑎𝑡𝑖𝑜𝑛 (Eq S9)

[16] = In vitro permeability (Papp), transwell transport; settings: dog, MDCK
[17] = cited from earlier work; remark: listed apart in the source
[18] = with 25 μM hydralazine; cited from earlier work
[19] = Microsomal binding (fumic); settings: corrected with Hallifax&Houston algorithm
Method: Microsomal binding (fumic):
as §10, §11, §12, §13, §14, §15, §16, §17, §18, §19, §20, §21, §22, §23, §24, §25, §26, §27, §28
%𝑟𝑒𝑐𝑜𝑣𝑒𝑟𝑦 = (𝐴 + 𝐵)/𝐶 × 100 (Eq. S13)
as §29, §30

[20] = in vivo; cited from earlier work
[21] = DDI study with rifampicin (capmatinib 400, idelalisib 150, lenvatinib 24 mg) or carbamazepine (ziprasidone 20 mg), observed, ref suppl. 15,18,21,25
[22] = with itraconazole (capmatinib 200 mg) or ketoconazole (idelalisib 400, lenvatinib 5, ziprasidone 40 mg), observed, ref suppl. 15,10,17,20,24
[23] = with rifampicin (capmatinib 400, idelalisib 150, lenvatinib 24 mg) or carbamazepine (ziprasidone 20 mg), observed, ref suppl. 15,18,21,25
[24] = observed (mass balance), capmatinib 600 mg section, ref suppl. 8

- Cmax,u [3]: 0.57 µM
- Ki ([5]; cytosol, KI,u): 920 nM
- Ki ([5]; cytosol, Ki,u): 350 nM
Compound: C#Cc1cccc(Nc2ncnc3cc4c(cc23)OCCOCCOCCO4)c1 [Icotinib]
- IC50 [1]: 12200 nM
- Ki [2]: 25600 nM
- Mode of inhibition [4]: Time-dependent
- Maximal inactivation rate (kinact) ([4]; ref suppl. 32): 0.55 min⁻¹

Compound: NC(=O)c1nc(F)c[nH]c1=O [favipiravir]
- fmAO of victim drug in AO DDI reports [6]: 0.9

Compound: O=C(Nc1ccc(OC(F)(F)F)cc1)c1sccc1NCc1ccnc2ccccc12 [OSI-930]
- fmAO of victim drug in AO DDI reports [6]: 0.46

- B/P ([8]; 10 ng/mL): 3.95
- B/P ([8]; 5000 ng/mL): 1.37
- fumic (PBPK input) [9]: 0.826
- fucyt, Dog Liver Cytosol with 50 uM Hydralazine [10]: 0.718 (2.47)
- % Stability in plasma [11]: 78.8%
- fucyt, Human Liver Cytosol with 5 uM Raloxifene [14]: 0.777 (8.48)
- fucyt, Human Liver Cytosol with 50 uM Hydralazine [14]: 0.831 (2.65)
- microsomal CLint at 1 µM [15]: 30.4 µL/min/mg
- Papp A→B at 120 min, 5 µM [16]: 32 ×10⁻⁶ cm/s
- Papp B→A at 120 min, 5 µM [16]: 29.5 ×10⁻⁶ cm/s
- efflux ratio at 120 min, 5 µM [16]: 0.921
- Predicted fumic for 0.5 mg/mL [19]: 0.707
- Predicted fumic for 1 mg/mL [19]: 0.549
Compound: CNC(=O)c1ccc(-c2cnc3ncc(Cc4ccc5ncccc5c4)n3n2)cc1F [Capmatinib]
- Cmax, control ([7]; DDI study with itraconazole (capmatinib 200 mg) or ketoconazole (idelalisib 400, lenvatinib 5, ziprasidone 40 mg), observed geomean (CV%), ref suppl. 15,10,17,20,24): 1260 ng/mL
- AUCinf, control ([7]; DDI study with itraconazole (capmatinib 200 mg) or ketoconazole (idelalisib 400, lenvatinib 5, ziprasidone 40 mg), observed, ref suppl. 15,10,17,20,24): 5180 ng·h/mL
- AUCinf, control (AUC0-12 for ziprasidone) [7, 21]: 11500 ng·h/mL
- Cmax, control [7, 21]: 3070 ng/mL
- AUCinf, interaction [7, 22]: 7360 ng·h/mL
- Cmax, interaction [7, 22]: 1300 ng/mL
- AUCinf, interaction (AUC0-12 for ziprasidone) [7, 23]: 3850 ng·h/mL
- Cmax, interaction [7, 23]: 1350 ng/mL
- pKa1 ([12]; 47 (per cell)): 12.8[44]
- pKa2 ([12]; 47 (per cell)): 4.55[44]
- logP ([12]; octanol-water, 12 (per cell)): 3.04[44]
- fmAO ([13]; measured in excreta, ref suppl. 8-13): 0.40
- fmAO ([13]; measured in excreta, ref suppl. 8-13, listed as capmatinib): 0.4
- fmAO ([13]; observed (mass balance), min-max where uncertain, Table S10, ref suppl. 8-13): 40
- fmCYP3A4 ([13]; observed (mass balance), min-max where uncertain, ref suppl. 8-12): 60
- fmAO [13, 24]: 40
- fmCYP3A4 [13, 24]: 60
- fmAO ([13]; observed, mass balance): 40%
- fmCYP3A4 ([13]; ref suppl. 8-12): 0.6
- fa [17]: 0.67[48]
- AUCinf ([17]; human, in vivo, po): 14400 (36.9) ng.h/mL
- CLoral ([17]; human, in vivo, po): 51.7 (66.5) L/h
- Cmax ([17]; human, in vivo, po): 3670 (46.6) ng/mL
- CLRenal ([17]; observed, ref Table S2/S3 studies): Negligible
- CLiv/oral [CV%] ([17]; oral, capmatinib weighted mean and CV, ref Table S2/S3 studies): 42.3 [60] (weighted mean and CV) L/h
- HH CLint, non-AO [18]: 7.8[21] μL/min/10^6 hepatocytes

Compound: C#Cc1cccc(Nc2ncnc3cc(OCCOC)c(OCCOC)cc23)c1 [Erlotinib]
- IC50 [1]: 1340 nM
- Ki [2]: 3020 nM
- Cmax,u [3]: 0.42 µM
- Mode of inhibition [4]: Time-dependent
- Cmax [20]: 6.06 µM
- Ki ([5]; KI,u): 500 nM
- Ki ([5]; Ki,u): 130 nM

— article PMC11706420, “Establishing a physiologically based pharmacokinetic framework for aldehyde oxidase and dual aldehyde oxidase‐CYP substrates” (CPT: Pharmacometrics & Systems Pharmacology, 2024)
